What was measured:
[1] = CCC extraction with DME of clarified fermentation broth from Clostridium acetobutylicum, GC and DNS assay; assay type: physicochemical
Protocol: This example describes three different runs of the CCC with fermentation broth from Clostridium acetobutylicum. […] The fermentation was intentionally interrupted prior to completion.
The extraction column operated at room temperature (˜25° C.) throughout the column. Periodic extract and raffinate samples were taken and analyzed for the constituents in the extract and raffinate discharges.
This example describes three different runs. In all cases, the mass of solvent to the mass of feed ratio (S/F) was 0.9. In all example the fermentation broth was first centrifuged to removal all cellular matter. Thus, the feed solution was clarified. In the case of the first run, the following components were measured via gas chromatograph (GC) analysis using external standard calibration. The external standard was run prior to analyzing the samples to provide individual calibration between peak area and the respective constituent under measure. […] Acetate was the conjugate base of acetic acid. Butyrate was the conjugate base of butyric acid. All components were quantified in the extract and raffinate. Since the extract and raffinate are mostly water and DME dissolves in water to approximately 20 wt. %, the samples were allowed to degas over a 24 hour period.
During the run, samples were taken of the extract and raffinate. In the case of the extract, the bulk DME was removed by reduction of pressure and addition of heat to flash the DME from the water and other solution constituents.
Extract and raffinate samples were collected at periodic intervals during the CCC testing. […] Glucose was measured via a DNS (3,5-dinitrosalicylic acid) assay.
In cases where the extract formed a two phase solution, the extract samples were diluted with distilled water to create a single phase and homogenous sample prior to GC. The dilution factor was then used to correct the GC measurements for concentrations prior to dilution.

[2] = Distribution coefficients of ABE mixtures between DME and aqueous phase in agitated pressure vessel, HPLC; assay type: physicochemical
Protocol: The compositions of the aqueous mixtures were based on concentrations typically produced in a cellulosic fermentation.
Mixtures were charged to a pressure vessel and agitated to provide adequate contacting between the aqueous and solvent (DME) phases. Heat tape was used to control the temperature of the liquid that was measured by thermocouples. Pressure and temperature measurements were taken every five minutes. After temperature and pressure stabilization agitation was ceased and the liquid phases were allowed to fully settle.
A mass balance was also performed on each component of the ABE and BE mixtures to determine a degree of accuracy of the results.

[3] = Run 3, Extract Bot, time 31 min
[4] = Run 3, Extract Bot, time 37 min
[5] = Run 3, Extract Top, time 31 min
[6] = Run 3, Extract Top, time 37 min

Structure (SMILES) | concentration in sample [1, 3] [µg/mL] | concentration in sample [1, 4] [µg/mL] | concentration in sample [1, 5] [µg/mL] | concentration in sample [1, 6] [µg/mL] | concentration in sample ([1]; Run 3, Extract, time 22 min) [µg/mL] | concentration in sample ([1]; Run 3, Extract, time 27 min) [µg/mL] | concentration in sample ([1]; Run 3, Extract, time 43 min) [µg/mL] | concentration in sample ([1]; Run 3, Extract, time 70 min) [µg/mL] | concentration in sample ([1]; Run 3, Extract, time 74 min) [µg/mL] | concentration in sample ([1]; Run 3, Extract, time 78 min) [µg/mL] | concentration in sample ([1]; Run 3, Extract, time 82 min) [µg/mL] | concentration in sample ([1]; Run 3, Feed, time 0 min) [µg/mL] | concentration in sample ([1]; Run 3, Raffinate, time 22 min) [µg/mL] | concentration in sample ([1]; Run 3, Raffinate, time 27 min) [µg/mL] | concentration in sample ([1]; Run 3, Raffinate, time 31 min) [µg/mL] | concentration in sample ([1]; Run 3, Raffinate, time 37 min) [µg/mL] | concentration in sample ([1]; Run 3, Raffinate, time 43 min) [µg/mL] | concentration in sample ([1]; Run 3, Raffinate, time 70 min) [µg/mL] | concentration in sample ([1]; Run 3, Raffinate, time 74 min) [µg/mL] | concentration in sample ([1]; Run 3, Raffinate, time 78 min) [µg/mL] | further results
CCO [Ethanol, ethanol] | 2290 | 2590 | 1980 | 2110 | 1130 | 1530 | 2110 | 1850 | 1710 | 1700 | 1920 | 800 | 340 | 400 | 420 | 640 | 890 | 1560 | 710 | 240 | concentration in sample ([1]; Run 3, Raffinate, time 82 min): 1140 µg/mL
O [Water, water] | – | – | – | – | – | – | – | – | – | – | – | – | – | – | – | – | – | – | – | – | DC ([2]; test ABE1, […] C., 104 psig): 0.15; DC ([2]; test ABE2, 38.3 ° C., 102 psig): 0.14; DC ([2]; test ABE3, 38.3 ° C., 103 psig): 0.13; DC ([2]; test ABE4, 38.0 ° C., 103 psig): 0.14; DC ([2]; test B1, […] C., 78 psig): 0.15; DC ([2]; test B2, 28.2 ° C., 83 psig): 0.11; DC ([2]; test B3, […] C., 86 psig): 0.11; DC ([2]; test BE1, 30.1 ° C., 85 psig): 0.13; DC ([2]; test BE2, 38.9 ° C., 107 psig): 0.13; DC ([2]; test BE3, 37.6 ° C., 103 psig): 0.12; DC ([2]; test BE3, 38.4 ° C., 106 psig): 0.12
CC(=O)O [acetate] | 480 | 0 | 400 | 370 | 410 | 0 | 480 | 400 | 0 | 550 | 400 | 5470 | 6780 | 5370 | 6420 | 6010 | 7110 | 6840 | 7770 | 7070 | extraction into DME ([1]; Run 1, pH greater than 5.5): not extracted; concentration in sample ([1]; Run 3, Raffinate, time 82 min): 7290 µg/mL
